tested on: BT20 Cell; assay: Cancer Cell Lysate Total L-Glutamate Assay; format: cell-based; conditions: Homo sapiens, BT-20, 2 h, total L-glutamate in cell lysate, BT20 cells, 2 hour incubation with test compound
Protocol: Cancer Cell Lysate Total L-Glutamate Assay
Cancer cell lines (BT20, HCT116, SKOV3, HCC70, SUM149, MDA-MB-231, etc.) were plated in 96 well plates and were used for the total L-glutamate assay when the monolayer was ca. 80% confluent. The media was changed and fresh media containing L-glutamine was added to the 96 well plates, just before incubation of the cells with test compound. The test compound was diluted in 100% DMSO using a two-fold or three-fold serial dilution. Small volumes of the dilutions of test compound were added to the 96 well plates so the final DMSO concentration was 0.5% v/v in the cell culture medium. The cells were incubated at 37° C., 5% CO2, and 95% air for 2 hours. Following the 2 hour incubation, the cells were washed with water 2 times. After the last water wash, 100 μL of 50 mM Tris-HCl pH 7.4 and 0.01% Tween-20 was added to each well and the plate was frozen at −80° C. The 96 well plate was frozen and thawed a total of 3 times and then sonicated for 5 min at 4° C. in a bath sonicator. Following sonication, the 96 well plate was centrifuged for 5 min at 1000 rpm and 10 μL of the supernatant was transferred to a 384 well assay plate.
Total L-glutamate (L-glutamic acid) in the cell lysis supernatant was detected using glutamate oxidase, horseradish peroxidase and Amplex Red reagent (10-acetyl-3,7-dihydroxy phenoxazine, Invitrogen # A22177). In this assay, L-glutamate was oxidized by glutamate oxidase to produce alpha-ketoglutarate (2-oxopentane dioic acid), NH3 and H202. The H2O2 (hydrogen peroxide) was used by horseradish peroxidase (HRP) to oxidize the Amplex Red Reagent to resorufin which is a fluorescent molecule. When resorufin is excited with light with a wavelength 530-560 nm, it emits light at approximately 585 nm. For detection of total L-glutamate in 10 μL of lysate, 15 μL of an enzyme mixture was added to each well of the 384 well assay plate. The enzyme mixture consisted of 50 mM Tris-HCl pH 7.4, 0.01% Tween-20, 50 μM Amplex Red reagent (final concentration), 0.04 U/mL L-glutamate oxidase (final concentration), and 0.125 U/mL HRP (final concentration). The 384 well assay plate was incubated at room temperature for 5 min and then the fluorescence intensity of each well was measured at 585 nm using a 530-560 nm excitation wavelength in a plate based fluorimeter such as an LJL Analyst or a Tecan Infinite plate reader. Standard curves were constructed for this assay using dilutions of a L-glutamate standard. IC50 were calculated by plotting the relative fluorescent units vs log of the inhibitor concentration and fitting the data to the four parameter logistic equation.
Reference: Chapman J. and Zhou M. (1999) Microplate-based fluorometric methods for the enzymatic determination of I-glutamate: application in measuring I-glutamate in food samples. Analytica Chim Acta 402:47-52.

| Compound | IC50 |
| --- | --- |
| CC(C)(C)C(=O)Nc1nnc(C[C@@H]2CC[C@H](c3nnc(NC(=O)C(C)(C)C)s3)C2)s1 (single isomer, unassigned) [Example 29, N-(5-{[(cis)-3-{5-[(2,2-dimethylpropanoyl)amino]-1,3,4-thiadiazol-2-yl}cyclopentyl]methyl}-1,3,4-thiadiazol-2-yl)-2,2-dimethylpropanamide] | 167 nM |
| CCC(=O)Nc1ccc(C[C@@H]2CC[C@H](c3nnc(NC(=O)Cc4ccccn4)s3)C2)nn1 (single isomer, unassigned) [Example 79, N-(6-{[(cis)-3-{5-[(pyridin-2-ylacetyl)amino]-1,3,4-thiadiazol-2-yl}cyclopentyl]methyl}pyridazin-3-yl)propanamide] | 1.1 nM |
| CC(C)C(=O)Nc1nnc(C[C@H]2C[C@@H](c3nnc(NC(=O)Cc4ccccn4)s3)C2)s1 (single isomer, unassigned) [Example 104, 2-methyl-N-{5-[(cis-3-{5-[(pyridin-2-ylacetyl)amino]-1,3,4-thiadiazol-2-yl}cyclobutyl)methyl]-1,3,4-thiadiazol-2-yl}propanamide] | 8.6 nM |
| CC(=O)Nc1nnc(C2CCC(Cc3nnc(NC(=O)Cc4ccccc4)s3)C2)s1 (racemic) [Example 15, N-[5-({(cis)-3-[5-(acetylamino)-1,3,4-thiadiazol-2-yl]cyclopentyl}methyl)-1,3,4-thiadiazol-2-yl]-2-phenylacetamide] | 10.6 nM |
| CC(=O)Nc1nnc(C[C@H]2CC[C@@H](c3nnc(NC(=O)Cc4ccccn4)s3)C2)s1 (single isomer, unassigned) [Example 56, N-{5-[(cis)-3-{[5-(acetylamino)-1,3,4-thiadiazol-2-yl]methyl}cyclopentyl]-1,3,4-thiadiazol-2-yl}-2-(pyridin-2-yl)acetamide] | 2700 nM |
| CC(=O)Nc1nnc(C2CC[C@H](Cc3nnc(NC(=O)c4ccccc4)s3)C2)s1 (single isomer, unassigned) [Example 12, N-[5-({(cis)-3-[5-(acetylamino)-1,3,4-thiadiazol-2-yl]cyclopentyl}methyl)-1,3,4-thiadiazol-2-yl]benzamide] | > 50000 nM |
| O=C(Cc1ccccn1)Nc1ccc(C[C@@H]2CC[C@H](c3nnc(Nc4ccccn4)s3)C2)nn1 (single isomer, unassigned) [Example 75, 2-(pyridin-2-yl)-N-[6-({(cis)-3-[5-(pyridin-2-ylamino)-1,3,4-thiadiazol-2-yl]cyclopentyl}methyl)pyridazin-3-yl]acetamide] | 1.1 nM |
| C[C@@H](C(=O)Nc1nnc(C[C@@H]2CC[C@H](c3nnc(NC(=O)[C@H](C)c4cccnc4)s3)C2)s1)c1cccnc1 (single isomer, unassigned) [Example 37, 2-(pyridin-3-yl)-N-(5-{[(cis)-3-(5-{[2-(pyridin-3-yl)propanoyl]amino}-1,3,4-thiadiazol-2-yl)cyclopentyl]methyl}-1,3,4-thiadiazol-2-yl)propanamide] | 19.4 nM |
| O=C(Cc1ccccn1)Nc1nnc(C[C@@H]2CC[C@@H](c3nnc(Nc4ccccn4)s3)C2)s1 (single isomer, unassigned) [Example 85, 2-(pyridin-2-yl)-N-[5-({3-[5-(trans)(pyridin-2-ylamino)-1,3,4-thiadiazol-2-yl]cyclopentyl}methyl)-1,3,4-thiadiazol-2-yl]acetamide] | 8.2 nM |
| O=C(Cc1ccccc1)Nc1ccc(CC2CCC(c3nnc(NC(=O)Cc4ccccn4)s3)C2)nn1 (racemic) [Example 1, 2-phenyl-N-(6-{[(cis)-3-{5-[(pyridine-2-ylacetyl)amino]-1,3,4-thiadiazol-2-yl}cyclopentyl]methyl}pyridazin-3-yl)acetamide] | 0.7 nM |
| CC(C)(C)C(=O)Nc1nnc(CC2CCC(c3nnc(NC(=O)C(C)(C)C)s3)C2)s1 (racemic) [Example 27, (rac)-N-(5-{[(cis)-3-{5-[(2,2-dimethylpropanoyl)amino]-1,3,4-thiadiazol-2-yl}cyclopentyl]methyl}-1,3,4-thiadiazol-2-yl)-2,2-dimethylpropanamide] | 242 nM |
| Cn1ccc(Nc2nnc(C3CCC(Cc4nnc(NC(=O)Cc5ccccn5)s4)C3)s2)n1 (racemic) [Example 88, (rac)-N-(5-{[(cis)-3-{5-[(1-methyl-1H-pyrazol-3-yl)amino]-1,3,4-thiadiazol-2-yl}cyclopentyl]methyl}-1,3,4-thiadiazol-2-yl)-2-(pyridin-2-yl)acetamide] | 13 nM |
| COCCC(=O)Nc1nnc([C@H]2CC[C@@H](Cc3ccc(NC(=O)Cc4ccccn4)nn3)C2)s1 (single isomer, unassigned) [Example 122, 3-methoxy-N-{5-[(cis)-3-({6-[(pyridin-2-ylacetyl)amino]pyridazin-3-yl}methyl)cyclopentyl]-1,3,4-thiadiazol-2-yl}propanamide] | 0.4 nM |
| CC(=O)Nc1nnc([C@@H]2CC[C@H](Cc3nnc(NC(=O)Cc4ccn(C)n4)s3)C2)s1 (racemic) [Example 146, (rac)-N-[5-({(cis)-3-[5-(acetylamino)-1,3,4-thiadiazol-2-yl]cyclopentyl}methyl)-1,3,4-thiadiazol-2-yl]-2-(1-methyl-1H-pyrazol-3-yl)acetamide] | 6.9 nM |
| CC(=O)Nc1nnc(C2CCC(Cc3nnc(NC(=O)Cc4ccc(C)nc4)s3)C2)s1 (racemic) [Example 52, (rac)-N-[5-({(cis)-3-[5-(acetylamino)-1,3,4-thiadiazol-2-yl]cyclopentyl}methyl)-1,3,4-thiadiazol-2-yl]-2-(6-methylpyridin-3-yl)acetamide] | 29.8 nM |
| CCNc1nnc([C@H]2C[C@@H](Cc3ccc(NC(=O)Cc4ccccc4)nn3)C2)s1 (single isomer, unassigned) [Example 100, N-[6-({cis-3-[5-(ethylamino)-1,3,4-thiadiazol-2-yl]cyclobutyl}methyl)pyridazin-3-yl]-2-phenylacetamide] | 2.4 nM |
| CC(=O)Nc1nnc(C[C@H]2CCC(c3nnc(NC(=O)Cc4ccncn4)s3)C2)s1 (single isomer, unassigned) [Example 21, N-{5-[(cis)-3-{[5-(acetylamino)-1,3,4-thiadiazol-2-yl]methyl}cyclopentyl]-1,3,4-thiadiazol-2-yl}-2-(pyrimidin-4-yl)acetamide] | > 6650 nM |
| CC(=O)Nc1nnc(C[C@@H]2CC[C@H](c3nnc(NC(=O)Cc4cncnc4)s3)C2)s1 (single isomer, unassigned) [Example 58, N-{5-[(cis)-3-{[5-(acetylamino)-1,3,4-thiadiazol-2-yl]methyl}cyclopentyl]-1,3,4-thiadiazol-2-yl}-2-(pyrimidin-5-yl)acetamide] | 276 nM |
| CC(=O)Nc1nnc([C@@H]2CC[C@H](Cc3nnc(NC(=O)Cc4cncnc4)s3)C2)s1 (single isomer, unassigned) [Example 50, N-[5-({(cis)-3-[5-(acetylamino)-1,3,4-thiadiazol-2-yl]cyclopentyl}methyl)-1,3,4-thiadiazol-2-yl]-2-(pyrimidin-5-yl)acetamide] | 8750 nM |
| CC(=O)Nc1ccc(C[C@@H]2CC[C@H](c3nnc(NC(=O)Cc4ccccn4)s3)C2)nn1 (single isomer, unassigned) [Example 69, N-{5-[(cis)-3-{[6-(acetylamino)pyridazin-3-yl]methyl}cyclopentyl]-1,3,4-thiadiazol-2-yl}-2-(pyridin-2-yl)acetamide] | 2.5 nM |
| CC(=O)Nc1nnc([C@H]2CC[C@@H](Cc3nnc(NC(=O)Cc4ccccc4)s3)C2)s1 (single isomer, unassigned) [Example 14] | 3.1 nM |

Source: US10676471B2, “Cycloalkyl-linked diheterocycle derivatives” (Pfizer Inc., priority 2014, dated 2020)
